Test results: publication PMC6934184, “Selective DNA-PKcs inhibition extends the therapeutic index of localized radiotherapy and chemotherapy” (The Journal of Clinical Investigation, 2019)

Molecular target: T1, PRKCH (PKC eta) (Homo sapiens, UniProt P24723)
T1 construct: purchased Thermo Fisher Scientific (Life Technologies) SelectScreen
Experiment: SelectScreen Z'LYTE
Assay type: biochemical
Method in brief: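 SelectScreen broad panel; activity (Z'LYTE, Adapta) plus binding formats. ATP: Km app for CSF1R Z'LYTE; 10 for CAMK1 Adapta. Readout = % per kinase.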

T1 sequence (P24723 whole entry): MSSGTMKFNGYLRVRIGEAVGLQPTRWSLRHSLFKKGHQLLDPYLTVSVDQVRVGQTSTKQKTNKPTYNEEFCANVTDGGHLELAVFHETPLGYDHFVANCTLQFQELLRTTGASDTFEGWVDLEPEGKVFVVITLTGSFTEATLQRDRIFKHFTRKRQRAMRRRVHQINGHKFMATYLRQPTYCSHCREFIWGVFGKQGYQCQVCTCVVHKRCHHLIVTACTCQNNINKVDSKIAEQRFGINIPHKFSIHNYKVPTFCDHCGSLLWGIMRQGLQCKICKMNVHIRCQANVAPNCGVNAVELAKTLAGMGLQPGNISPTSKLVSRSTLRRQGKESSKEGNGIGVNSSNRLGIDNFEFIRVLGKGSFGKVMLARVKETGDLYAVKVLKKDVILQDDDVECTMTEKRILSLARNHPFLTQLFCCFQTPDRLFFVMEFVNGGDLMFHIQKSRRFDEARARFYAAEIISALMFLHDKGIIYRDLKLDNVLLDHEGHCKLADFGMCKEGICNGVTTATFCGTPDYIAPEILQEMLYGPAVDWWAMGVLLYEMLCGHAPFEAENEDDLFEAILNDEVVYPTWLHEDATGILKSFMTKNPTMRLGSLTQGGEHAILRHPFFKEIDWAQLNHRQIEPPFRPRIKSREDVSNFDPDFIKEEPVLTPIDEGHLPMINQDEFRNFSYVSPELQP

SMILES: CN(C(=O)CN1CCOCC1)c1ccc2sc3c(-c4cccc5c(=O)cc(N6CC7CCC(C6)O7)oc45)cccc3c2c1 [NU5455]
- inhibition at 1 µM: -4.6%
